The target of the test is T1, full-length human PKCι (Homo sapiens, UniProt P41743).
T1 construct: Recombinant, full-length human PKCι expressed in Sf21 insect cells is also commercially available; purchased; host or cells: Sf21 insect cells
T1 sequence (P41743 1-596): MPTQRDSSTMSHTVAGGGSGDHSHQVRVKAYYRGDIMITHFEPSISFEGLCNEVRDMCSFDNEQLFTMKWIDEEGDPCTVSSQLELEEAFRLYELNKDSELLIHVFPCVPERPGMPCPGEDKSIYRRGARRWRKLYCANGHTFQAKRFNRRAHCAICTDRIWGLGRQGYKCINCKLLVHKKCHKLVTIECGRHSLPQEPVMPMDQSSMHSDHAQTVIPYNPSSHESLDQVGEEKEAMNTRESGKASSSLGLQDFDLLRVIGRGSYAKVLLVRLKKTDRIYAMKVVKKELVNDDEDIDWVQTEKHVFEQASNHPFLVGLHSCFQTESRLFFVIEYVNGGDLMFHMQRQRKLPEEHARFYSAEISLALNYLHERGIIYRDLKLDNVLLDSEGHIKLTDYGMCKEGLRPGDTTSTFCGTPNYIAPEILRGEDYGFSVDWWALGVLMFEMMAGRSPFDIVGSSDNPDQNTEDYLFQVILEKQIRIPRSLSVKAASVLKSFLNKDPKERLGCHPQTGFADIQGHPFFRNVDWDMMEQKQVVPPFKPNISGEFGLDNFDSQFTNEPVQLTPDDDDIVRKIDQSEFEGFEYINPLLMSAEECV
Kind of test: PKCι IC50 IMAP assay, full-length PKCι at 150 μM ATP. Type of test: biochemical. To be noted: read-out: IC50 in IMAP assay against full length PKCi at 150 μM ATP. The gist of the method: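 Full-length hPKCι (Sf21) ~15 pM; 5FAM-peptide 100 nM; ATP 150 μM (5× KM^APP); tris pH7.5/MgCl2/EGTA/DTT/Triton, 4% DMSO; 60 min RT; IMAP stop, 2 h; FP 485/530 nm; IC50 from % inhibition curves.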

Where only a bound is given, the exact number is not on record here.

The IC50 is the midpoint of a concentration-inhibition curve. For `CN1CCN(c2cccc(Nc3cc(-c4nc(N5CC[C@@H](O)C5)c5c(C6CC6)cncc5n4)ccn3)c2)CC1` [Example 738, (R)-1-(5-Cyclopropyl-2-{2-[3-(4-methyl-piperazin-1-yl)-phenylamino]-pyridin-4-yl}-pyrido[3,4-d]pyrimidin-4-yl)-pyrrolidin-3-ol], the IC50 is less than 100 nM.
Regarding `COc1cncc2nc(N3CCOCC3)nc(N3CCNCC3)c12` [Example 1003, 5-Methoxy-2-morpholin-4-yl-4-piperazin-1-yl-pyrido[3,4-d]pyrimidine], the IC50 lay within 100 to 1000 nM.
As to `FC(F)(F)c1cc2c(-c3nc(N4CCNC(C(F)(F)F)C4)c4c(C5CC5)cncc4n3)ccnc2[nH]1` (centres unmarked) [Example 1236, 5-Cyclopropyl-4-(3-trifluoromethyl-piperazin-1-yl)-2-(2-trifluoromethyl-1H-pyrrolo[2,3-b]pyridin-4-yl)-pyrido[3,4-d]pyrimidine], the IC50 was 1000 to 10000 nM.
Regarding `CN(c1nc(-c2ccnc(Nc3ncc(F)cc3F)c2)nc2cncc(C3CC3)c12)C1CCOCC1` [Example 2172, {5-Cyclopropyl-2-[2-(3,5-difluoro-pyridin-2-ylamino)-pyridin-4-yl]-pyrido[3,4-d]pyrimidin-4-yl}-methyl-(tetrahydro-pyran-4-yl)-amine], the IC50 was 1000 to 10000 nM.
For `COc1cncc2nc(-c3ccnc(Nc4cc(C#N)ccc4F)c3)nc(N3CCNCC3)c12` [Example 420, 4-Fluoro-3-[4-(5-methoxy-4-piperazin-1-yl-pyrido[3,4-d]pyrimidin-2-yl)-pyridin-2-ylamino]-benzonitrile], the IC50 fell in the range of 100 to 1000 nM.
The value for `Clc1ncc(C2CC2)c2c(N3CCNCC3)nc(-c3ccnc4[nH]ccc34)nc12` [Example 1210, 8-Chloro-5-cyclopropyl-4-piperazin-1-yl-2-(1H-pyrrolo[2,3-b]pyridin-4-yl)-pyrido[3,4-d]pyrimidine] was less than 100 nM; that for `N[C@H](CNc1nc(-c2ccncc2)nc2c(-c3cccc(Cl)c3)nccc12)Cc1ccccc1` [Example 102, N-[(2S)-2-amino-3-phenylpropyl]-8-(3-chloro-phenyl)-2-(pyridin-4-yl)-pyrido[3,4-d]-pyrimidin-4-amine] was 100 to 1000 nM.
Regarding `O[C@@H]1CCN(c2nc(-c3ccnc4[nH]c(C(F)(F)F)cc34)nc3cncc(C4CC4)c23)C[C@H]1O` (racemic) [Example 1235, (+/−)-(trans)-1-[5-Cyclopropyl-2-(2-trifluoromethyl-1H-pyrrolo[2,3-b]pyridin-4-yl)-pyrido[3,4-d]pyrimidin-4-yl]-piperidine-3,4-diol], the IC50 lay in the range of 100 to 1000 nM.
In the case of `COc1cncc2nc(-c3ccncc3)nc(N3CCOC(Cc4ccccc4)C3)c12` (centres unmarked) [Example 72, 2-benzyl-4-[5-methoxy-2-(pyridin-4-yl)pyrido[3,4-d]-pyrimidin-4-yl]-morpholine], the IC50 lay in the range of 1000 to 10000 nM.
With `CCc1cncc2nc(-c3ccncc3)nc(NC[C@@H](N)Cc3ccccc3)c12` [Example 137, N-[(2S)-2-amino-3-phenylpropyl]-5-ethyl-2-(pyridin-4-yl)pyrido[3,4-d]pyrimidin-4-amine], the half-inhibitory concentration (IC50) is less than 100 nM.
Consider `Fc1cccc(F)c1Nc1cc(-c2nc(SC3CCNCC3)c3c(C4CC4)cncc3n2)ccn1` [Example 791, {4-[5-Cyclopropyl-4-(piperidin-4-ylsulfanyl)-pyrido[3,4-d]pyrimidin-2-yl]-pyridin-2-yl}-(2,6-difluoro-phenyl)-amine], for which the IC50 is less than 100 nM.
On to `c1ccc(Nc2cc(-c3nc(N4CCNCC4)c4c(C5CC5)cncc4n3)ccn2)cc1` [Example 279, [4-(5-Cyclopropyl-4-piperazin-1-yl-pyrido[3,4-d]pyrimidin-2-yl)-pyridin-2-yl]-phenyl-amine], for which the IC50 is less than 100 nM.
With `COc1cncc2nc(N3CCOCC3)nc(N3CCN[C@@H](COc4ccc(F)cc4)C3)c12` [Example 1010, 4-[(R)-3-(4-Fluoro-phenoxymethyl)-piperazin-1-yl]-5-methoxy-2-morpholin-4-yl-pyrido[3,4-d]pyrimidine], the IC50 lay within 100 to 1000 nM.
The value for `CN1CCC(N(C)c2nc(-c3ccnc4[nH]c(C(F)(F)F)cc34)nc3cncc(C4CC4)c23)CC1` [Example 2081, [5-Cyclopropyl-2-(2-trifluoromethyl-1H-pyrrolo[2,3-b]pyridin-4-yl)-pyrido[3,4-d]pyrimidin-4-yl]-methyl-(1-methyl-piperidin-4-yl)-amine] was less than 100 nM; that for `COc1cncc2nc(-c3ccnc(Nc4ccccc4)c3)nc(NC[C@H]3CCCN3)c12` [Example 431, [5-Methoxy-2-(2-phenylamino-pyridin-4-yl)-pyrido[3,4-d]pyrimidin-4-yl]-(R)-1-pyrrolidin-2-ylmethyl-amine] was 100 to 1000 nM.
Regarding `CCNC(=O)N[C@H](CNc1nc(-c2ccncc2)nc2cnccc12)Cc1ccccc1` [Example 85, 3-ethyl-1-(1-phenyl-3-{[2-(pyridin-4-yl)pyrido[3,4-d]pyrimidin-4-yl]amino}propan-2-yl)urea], the IC50 was 10000 to 40000 nM.
Consider `N[C@H](CNc1nc(-c2ccncc2)nc2c(-c3ccn[nH]3)nccc12)Cc1ccccc1` [Example 89, N-[(2S)-2-amino-3-phenylpropyl]-8-(1H-pyrazol-5-yl)-2-(pyridin-4-yl)pyrido[3,4-d]-pyrimidin-4-amine], for which the concentration for half-maximal inhibition (IC50) is less than 100 nM.
In the case of “4-{5-(4-Cyano-pyridin-2-ylamino)-2-[2-(4-cyano-pyridin-2-ylamino)-pyridin-4-yl]-pyrido[3,4-d]pyrimidin-4-yl}-piperazine [Example 249]”, the 50% inhibitory concentration (IC50) is less than 100 nM.
Take `Cn1cc(-c2ccc(Nc3cc(-c4nc(N5CCNCC5)c5c(C6CC6)cncc5n4)ccn3)c(F)c2)cn1` [Example 2130, [4-(5-Cyclopropyl-4-piperazin-1-yl-pyrido[3,4-d]pyrimidin-2-yl)-pyridin-2-yl]-[2-fluoro-4-(1-methyl-1H-pyrazol-4-yl)-phenyl]-amine]: the concentration for half-maximal inhibition (IC50) was less than 100 nM.
With `c1ccc2c(c1)CCC(Nc1cc(-c3nc(N4CCNCC4)c4c(C5CC5)cncc4n3)ccn1)C2` (centres unmarked) [Example 2137, [4-(5-Cyclopropyl-4-piperazin-1-yl-pyrido[3,4-d]pyrimidin-2-yl)-pyridin-2-yl]-(1,2,3,4-tetrahydro-naphthalen-2-yl)-amine], the IC50 was less than 100 nM.
Take `COc1cncc2nc(N3CCOCC3)nc(N3CCN[C@@H](CO)C3)c12` [Example 1005, [(R)-4-(5-Methoxy-2-morpholin-4-yl-pyrido[3,4-d]pyrimidin-4-yl)-piperazin-2-yl]-methanol]: the IC50 is 100 to 1000 nM.
For the compound `Fc1cncc(F)c1Nc1cc(-c2nc(N3CCNCC3)c3c(C4CC4)cncc3n2)ccn1` [Example 705, [4-(5-Cyclopropyl-4-piperazin-1-yl-pyrido[3,4-d]pyrimidin-2-yl)-pyridin-2-yl]-(3,5-difluoro-pyridin-4-yl)-amine], the IC50 was less than 100 nM.
Take `COc1cncc2nc(-c3ccnc(Nc4cccc(F)c4F)c3)nc(N3CCNCC3)c12` [Example 439, (2,3-Difluoro-phenyl)-[4-(5-methoxy-4-piperazin-1-yl-pyrido[3,4-d]pyrimidin-2-yl)-pyridin-2-yl]-amine]: the IC50 was less than 100 nM.
Consider `N[C@H](CNc1nc(-c2ccncc2)nc2c(-c3ccncc3)nccc12)Cc1ccccc1` [Example 100, N-[(2S)-2-amino-3-phenylpropyl]-2,8-bis(pyridin-4-yl)pyrido[3,4-d]pyrimidin-4-amine], for which the IC50 was in the range of 100 to 1000 nM.
Take `CN1CCN(c2cccc(Nc3cc(-c4nc(N5CC[C@H](O)C5)c5c(C6CC6)cncc5n4)ccn3)c2)CC1` [Example 727, (S)-1-(5-Cyclopropyl-2-{2-[3-(4-methyl-piperazin-1-yl)-phenylamino]-pyridin-4-yl}-pyrido[3,4-d]pyrimidin-4-yl)-pyrrolidin-3-ol]: the half-maximal inhibitory concentration (IC50) was less than 100 nM.
Take `Clc1cc2c(-c3nc(N4CCNCC4)c4c(C5CC5)cncc4n3)ccnc2[nH]1` [Example 2074, 2-(2-Chloro-1H-pyrrolo[2,3-b]pyridin-4-yl)-5-cyclopropyl-4-piperazin-1-yl-pyrido[3,4-d]pyrimidine]: the IC50 is less than 100 nM.
Regarding `Fc1cc(F)nc(Nc2cc(-c3nc(N4CCNCC4)c4c(C5CC5)cncc4n3)ccn2)c1` [Example 836, [4-(5-Cyclopropyl-4-piperazin-1-yl-pyrido[3,4-d]pyrimidin-2-yl)-pyridin-2-yl]-(4,6-difluoro-pyridin-2-yl)-amine], the half-inhibitory concentration (IC50) is less than 100 nM.
Consider `COc1cncc2nc(-c3ccnc(Nc4ccc(N5CCOCC5)cc4F)c3)nc(N3CCNCC3)c12` [Example 418, (2-Fluoro-4-morpholin-4-yl-phenyl)-[4-(5-methoxy-4-piperazin-1-yl-pyrido[3,4-d]pyrimidin-2-yl)-pyridin-2-yl]-amine], for which the half-inhibitory concentration (IC50) was less than 100 nM.
Regarding `COc1cncc2nc(-c3ccnc(NC(=O)[C@H](C)c4ccccc4)c3)nc(N[C@@H]3CCNC3)c12` [Example 406, (R)-N-{4-[5-Methoxy-4-((R)-pyrrolidin-3-ylamino)-pyrido[3,4-d]pyrimidin-2-yl]-pyridin-2-yl}-2-phenyl-propionamide], the IC50 lay in the range of 100 to 1000 nM.

The values are drawn from US9914730B2, “Azaquinazoline inhibitors of Atypical protein Kinase C” (Ignyta, Inc., priority 2012, dated 2018).
